The source of these data is the supplement of paper PMC11208160.
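Note: IS621 bridge recombinase in Escherichia coli cells against a fixed T5 target plasmid.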

A short description of the series: recombinant UMI read abundance after kanamycin selection (control-corrected) (log10(CPM+1)); higher = more efficient recombination; extreme values may be limits of the assay; sequences stand for … in AGTGCAGAGAAAATCGGCCAGTTTTCTCTGCCTGCAGTCCGCATGCCGTGGGACCCCTTGGGTTCTAACCTGTTGCCTAGATTTATGCAGCGGACTGCCTTTCTCCCAAAGTGATAAACCGG…AGGTTGGTTTCACT; site = the 11-nt donor. In outline:
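In a pooled Escherichia coli screen for the IS621 bridge recombinase, donor and donor-binding-loop pairs were each placed with a 12-nt UMI on a plasmid bearing a promoterless kanamycin gene. This library was co-electroporated with a target plasmid encoding a fixed target and T7-inducible recombinase, and cells were plated either on IPTG (0.07 mM) plus kanamycin or without selection, in two replicates each. Recombinant UMIs were PCR-amplified across the donor–target junction and sequenced, and counts were converted to CPM, averaged over replicates, scaled by control-derived factors and reported as log10(CPM+1).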
Take “CCCCAGCCATGGACCGGTTTTCCCGGTAATCCGTATTTGCC (site CCCAAGCCTGG)”: the “recombinant UMI read abundance (log10)” value came to 0.
Next, “CCCCAGCCATGGACCGGTTTTCCCGGTAATCCGTATTTGCC (site CCCCAGCCTGG)”: 0; “CCCCAGCCATGGACCGGTTTTCCCGGTAATCCGTATTTGCC (site CCCGAGCCTGG)”: 0; “CCCCAGCCATGGACCGGTTTTCCCGGTAATCCGTATTTGCC (site CCCTAGCCTGG)”: 0.
The value for “CCCCGTCCATGGACCGGTTTTCCCGGTAATCCGTATTTGAA (site CCCCGTCCTTT)” was 0.00894; that for “CCCGAGACATGGACCGGTTTTCCCGGTAATCCGTATTTGTT (site CCCGAGACTAA)” was 0.475.
Next, “CCCGAGCCATGGACCGGTTTTCCCGGTAATCCGTATTTGCC (site CCCAAGCCTGG)”: 0; “CCCGAGCCATGGACCGGTTTTCCCGGTAATCCGTATTTGCC (site CCCCAGCCTGG)”: 0; “CCCGAGCCATGGACCGGTTTTCCCGGTAATCCGTATTTGCC (site CCCGAGCCTGG)”: 0.
With “CCCGAGCCATGGACCGGTTTTCCCGGTAATCCGTATTTGCC (site CCCTAGCCTGG)”, the “recombinant UMI read abundance (log10)” value is 0.
Next, “CCCGGCCCATGGACCGGTTTTCCCGGTAATCCGTATTTGTT (site CACGGCCCTAA)”: 0.00644.
Next, “CCCGGCCCATGGACCGGTTTTCCCGGTAATCCGTATTTGTT (site CCCGGCCCTAA)”: 0.1; “CCCGGCCCATGGACCGGTTTTCCCGGTAATCCGTATTTGTT (site CGCGGCCCTAA)”: 0.00519.
Next, “CCCGGCCCATGGACCGGTTTTCCCGGTAATCCGTATTTGTT (site CTCGGCCCTAA)”: 0; “CCCGGGCCATGGACCGGTTTTCCCGGTAATCCGTATTTGCA (site CCCGGACCTTG)”: 0.
Consider “CCCGGGCCATGGACCGGTTTTCCCGGTAATCCGTATTTGCA (site CCCGGCCCTTG)”, for which the “recombinant UMI read abundance (log10)” value was determined as 0.
Next, “CCCGGGCCATGGACCGGTTTTCCCGGTAATCCGTATTTGCA (site CCCGGGCCTTG)”: 0.
In the case of “CCCGGGCCATGGACCGGTTTTCCCGGTAATCCGTATTTGCA (site CCCGGTCCTTG)”, the “recombinant UMI read abundance (log10)” value worked out at 0.
Take “CCCGGGGCATGGACCGGTTTTCCCGGTAATCCGTATTTGCA (site CCCGGGGCTTG)”: the “recombinant UMI read abundance (log10)” value came to 1.23.
Next, “CCCGGTCCATGGACCGGTTTTCCCGGTAATCCGTATTTGAA (site CCCGGTCCTTA)”: 0.
“CCCGGTCCATGGACCGGTTTTCCCGGTAATCCGTATTTGAA (site CCCGGTCCTTC)”: the “recombinant UMI read abundance (log10)” value is 0.00874.
Take “CCCGGTCCATGGACCGGTTTTCCCGGTAATCCGTATTTGAA (site CCCGGTCCTTG)”: the “recombinant UMI read abundance (log10)” value amounted to 0.
The value for “CCCGGTCCATGGACCGGTTTTCCCGGTAATCCGTATTTGAA (site CCCGGTCCTTT)” was 0.00816; that for “CCCGGTCCATGGACCGGTTTTCCCGGTAATCCGTATTTGCC (site CCCGGTCCTAG)” was 0; that for “CCCGGTCCATGGACCGGTTTTCCCGGTAATCCGTATTTGCC (site CCCGGTCCTCG)” was 0.0293.
Next, “CCCGGTCCATGGACCGGTTTTCCCGGTAATCCGTATTTGCC (site CCCGGTCCTGG)”: 0; “CCCGGTCCATGGACCGGTTTTCCCGGTAATCCGTATTTGCC (site CCCGGTCCTTG)”: 0.00573.
Next, “CCCGTTCCATGGACCGGTTTTCCCGGTAATCCGTATTTGCA (site CCCGATCCTTG)”: 0; “CCCGTTCCATGGACCGGTTTTCCCGGTAATCCGTATTTGCA (site CCCGCTCCTTG)”: 0; “CCCGTTCCATGGACCGGTTTTCCCGGTAATCCGTATTTGCA (site CCCGGTCCTTG)”: 0.
In the case of “CCCGTTCCATGGACCGGTTTTCCCGGTAATCCGTATTTGCA (site CCCGTTCCTTG)”, the “recombinant UMI read abundance (log10)” value is 0.
The value for “CCCTAACCATGGACCGGTTTTCCCGGTAATCCGTATTTGAA (site CCCTAACCTTT)” was 0.0156.
The value for “CCCTAACCATGGACCGGTTTTCCCGGTAATCCGTATTTGCC (site CCCTAACCTGG)” was 0.
Regarding “CCCTAACCATGGACCGGTTTTCCCGGTAATCCGTATTTGCC (site CCCTACCCTGG)”, the “recombinant UMI read abundance (log10)” value was 0.
The value for “CCCTAACCATGGACCGGTTTTCCCGGTAATCCGTATTTGCC (site CCCTAGCCTGG)” was 0; that for “CCCTAACCATGGACCGGTTTTCCCGGTAATCCGTATTTGCC (site CCCTATCCTGG)” was 0; that for “CCCTACACATGGACCGGTTTTCCCGGTAATCCGTATTTGCT (site CACTACACTAG)” was 0.
As to “CCCTACACATGGACCGGTTTTCCCGGTAATCCGTATTTGCT (site CCCTACACTAG)”, the “recombinant UMI read abundance (log10)” value turned out to be 1.12.
The value for “CCCTACACATGGACCGGTTTTCCCGGTAATCCGTATTTGCT (site CGCTACACTAG)” was 0.477; that for “CCCTACACATGGACCGGTTTTCCCGGTAATCCGTATTTGCT (site CTCTACACTAG)” was 0.347.
In the case of “CCCTAGACATGGACCGGTTTTCCCGGTAATCCGTATTTGCC (site CCCTAGACTGG)”, the “recombinant UMI read abundance (log10)” value was 1.04.
The value for “CCCTAGACATGGACCGGTTTTCCCGGTAATCCGTATTTGCC (site CCCTAGCCTGG)” was 0.
Next, “CCCTAGACATGGACCGGTTTTCCCGGTAATCCGTATTTGCC (site CCCTAGGCTGG)”: 1.18; “CCCTAGACATGGACCGGTTTTCCCGGTAATCCGTATTTGCC (site CCCTAGTCTGG)”: 0; “CCCTAGACATGGACCGGTTTTCCCGGTAATCCGTATTTGCT (site CCCTAGACTAG)”: 0.956.
For the sequence “CCCTAGCCATGGACCGGTTTTCCCGGTAATCCGTATTTGAC (site CCCTAGCCTGA)”, the “recombinant UMI read abundance (log10)” value came to 0.
The value for “CCCTAGCCATGGACCGGTTTTCCCGGTAATCCGTATTTGAC (site CCCTAGCCTGC)” was 0; that for “CCCTAGCCATGGACCGGTTTTCCCGGTAATCCGTATTTGAC (site CCCTAGCCTGG)” was 0; that for “CCCTAGCCATGGACCGGTTTTCCCGGTAATCCGTATTTGAC (site CCCTAGCCTGT)” was 0.
Next, “CCCTAGCCATGGACCGGTTTTCCCGGTAATCCGTATTTGCA (site CCCTAGCCTAG)”: 0.
The value for “CCCTAGCCATGGACCGGTTTTCCCGGTAATCCGTATTTGCA (site CCCTAGCCTCG)” was 0; that for “CCCTAGCCATGGACCGGTTTTCCCGGTAATCCGTATTTGCA (site CCCTAGCCTGG)” was 0.
